# According to publication PMC6609034, “Unraveling the role of the secretor antigen in human rotavirus attachment to histo-blood group antigens” (PLoS Pathogens, 2019):
# How the values were obtained:
# [1] = tested on: VP8* P[8]c binding to the H1 antigen; experiment: Binding blocking assay, immobilized H1 antigen; design: species or system human rotavirus; settings: soluble sugar at 20 mM
# Method: (§1) To confirm the binding of the VP8* from the P[8] genotype to the H type-1 precursor LNB, a blocking assay was performed using soluble LNB and its related disaccharide galacto-N-biose (Gal-β-1,3-GalNAc; GNB) produced and purified in our laboratory as previously described.
# (§2) Streptavidin microtiter plates were coated with biotinylated H type-1 antigen or LNB at 2 μg/ml with water and incubated for 1 hour at 37°C, followed by an overnight incubation at 4°C. Blocking assays were performed in parallel, using glass tubes containing the P[8]c and P[8]Wa VP8* protein at their EC50 for each ligand and 20 mM of each of the soluble disaccharides (LNB and GNB) and monosaccharides (D-galactose, GlcNAc and GalNAc). A positive binding control without sugar was also included. The tubes containing the mixes of VP8* with sugars were maintained 1 hour at 37°C, followed by an overnight incubation at 4°C. The next day the coated streptavidin plates were washed with PBS-T, the VP8*-sugar solutions were added to the plates and incubated during 4 hours at 4°C. The plates were washed three times with PBS-T and detection of the interactions was performed as described above. The results are presented as the percentage (%) of binding of each condition compared to the binding of the positive binding control (without blocking sugar). All experiments were performed in triplicate.
# [2] = tested on: VP8* P[8]c binding to LNB; experiment: Binding blocking assay, immobilized LNB; design: species or system human rotavirus; settings: soluble sugar at 20 mM
# Method: as §1, §2
# VP8* P[11] = experiment: ELISA-like binding assay to biotinylated HBGAs; design: species or system rotavirus; settings: biotinylated PAA glycan 2 μg/ml, VP8* 10 μg/ml
# Source text: (§3) A panel of biotinylated sugar antigens including Le^a, Le^b, Le^c (lacto-N-biose; LNB), H type-1, H type-2 and blood group A and B trisaccharides were purchased from Glyconz (Fig 1 and S1 Table). These glycans are biotinylated neoglyconjugates of a poly[N-(2-hydroxyethyl)acrylamide] (PAA) with a size from 30 to 50 KDa. This forms a flexible polymer ideal for a multivalent presentation of glycans. Immobilized streptavidin F96 black plates (Nunc) were coated with the biotinylated oligosaccharides (2 μg/ml) in milli-Q water and incubated during 1 hour at 37°C. After functionalization the plates were washed once with PBS containing 0.05% of Tween 20 (PBS-T) and the VP8* proteins were added (10 μg/ml) and incubated at 4°C overnight. After three washes with PBS-T, a rabbit polyclonal antibody anti GST (1:1,000) (Abcam) was added and the plates were incubated one hour at 37°C. Then, the plates were washed three times with PBS-T and incubated for 1 h at 37°C with 1:10,000 dilution of horseradish peroxidase (HRP)-conjugated goat anti-rabbit (Abcam). After three washes with PBS-T, the binding was detected using QuantaBlue reagent (ThermoFisher) kit, as recommended by the manufacturer. Fluorescence units were registered by a MultiScan microplate reader. All the binding assays were performed in triplicate.
# VP8* P[8] = experiment: ELISA-like binding assay to biotinylated HBGAs; design: species or system human rotavirus; settings: biotinylated PAA glycan 2 μg/ml, VP8* 10 μg/ml
# Source text: as §3
# VP8* P[4] = experiment: ELISA-like binding assay to biotinylated HBGAs; design: species or system human rotavirus; settings: biotinylated PAA glycan 2 μg/ml, VP8* 10 μg/ml
# Source text: as §3
# VP8* P[25] = experiment: ELISA-like binding assay to biotinylated HBGAs; design: species or system rotavirus; settings: biotinylated PAA glycan 2 μg/ml, VP8* 10 μg/ml
# Source text: as §3
# VP8* P[14] = experiment: ELISA-like binding assay to biotinylated HBGAs; design: species or system human rotavirus; settings: biotinylated PAA glycan 2 μg/ml, VP8* 10 μg/ml
# Source text: as §3
# VP8* P[9] = experiment: ELISA-like binding assay to biotinylated HBGAs; design: species or system human rotavirus; settings: biotinylated PAA glycan 2 μg/ml, VP8* 10 μg/ml
# Source text: as §3
molecule,measurement,setting,value
O=C[C@H](O)[C@@H](O)[C@@H](O)[C@H](O)CO [D-galactose],reduction in the binding to the H1 antigen,[1],14.7%
"CC(=O)N[C@H]1C(O)O[C@H](CO)[C@H](O)[C@@H]1O[C@@H]1O[C@H](CO)[C@H](O)[C@H](O)[C@H]1O (stereo partly drawn) [GNB, Gal-β1,3-GalNAc]",reduction of the binding of VP8* P[8]c to LNB,[2],44.1%
same,reduction in the binding to the H1 antigen,[1],30.1%
"CC(=O)NC1C(O)OC(CO)C(OC2OC(CO)C(O)C(O)C2OC2OC(C)C(O)C(O)C2O)C1O (stereo not drawn) [H2, Fuc-α1,2-Gal-β1,4-GlcNAc]",binding (ELISA-like),VP8* P[11],recognized
C[C@H](O)[C@@H](O)[C@@H](O)[C@H](O)C=O [L-fucose],effect on the binding of VP8* to the H1 antigen,[1],significantly increased the binding
"Fuc-α1,2-Gal-β1,3-[Fuc-α1,4-]GlcNAc [Lewis^b]",binding (ELISA-like),VP8* P[8],very low or absence of binding
same,binding (ELISA-like),VP8* P[4],very low or absence of binding
"GlcNAc-α1,3-(Fucα1,2)-Gal [Atri]",binding (ELISA-like),VP8* P[25],recognized
same,binding (ELISA-like),VP8* P[14],recognized
same,binding (ELISA-like),VP8* P[8],low binding
same,binding (ELISA-like),VP8* P[9],recognized
